According to paper PMC10689823, “Discovery of a Drug-like, Natural Product-Inspired DCAF11 Ligand Chemotype” (Nature Communications, 2023):
Where “and” joins values, the source holds several entries; their conditions need not be identical. Equal entries are not always repeated. Blank lines part the entries; values can stand above or below the molecule they belong to.

Columns and labels:
Type in all cases: cell-based
[1] = Cell viability assay (CellTiter-Glo) in Jurkat cells; conditions: human, Jurkat cells; for viability at 72 h, 10 nmol/L: concentration 10 nmol/L; for viability at 72 h, 30 nmol/L: concentration 30 nmol/L; for viability at 72 h, 100 nmol/L: concentration 100 nmol/L; for viability at 72 h, 1000 nmol/L: concentration 1000 nmol/L; for viability at 72 h, 3000 nmol/L: concentration 3000 nmol/L; for viability at 72 h, 0.01 µM: 10 nM; for viability at 72 h, 0.03 µM: 30 nM; for viability at 72 h, 0.1 µM: 100 nM; for viability at 72 h, 0.3 µM: 300 nM; for viability at 72 h, 1 µM: 1000 nM
In short: (§1)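 Jurkat and Hep G2 cells were exposed to compounds for 72 h, with an untreated plate counted at time zero. Viability was read as CellTiter-Glo luminescence after 10 min reagent incubation at room temperature.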

Jurkat cells = assay: as above; conditions: for GI50: Homo sapiens; for GI50 / Relative cell viability (%): Jurkat cells, 72 h; for Relative cell viability (%): Fig. 4k; for Cell viability (%) relative to DMSO: individual replicates, Supplementary Fig. 7g
In short: as §1

BRD2 [2] = biological target: T1, BRD2 (Homo sapiens, UniProt P25440); assay: BRD2 levels by Western blot in Jurkat cells; design: endogenous in cells; host or cells: Jurkat; Hep G2; MDA-MB-231; KBM7 (WT, DCAF11 KO, DDB1 KO); Dmax: dose or concentration left out as unconfirmed; conditions: for degradation of BRD2: 3 µM, 6 h treatment
Method: Cells were washed with PBS and lysed in lysis buffer (50 mM Tris-HCl, pH 7.4, 150 mM NaCl, 1% Triton X-100, 1% sodium deoxycholate, 0.1% SDS) with complete protease inhibitor cocktail (Roche, 11836170001) for 30 min on ice. For Ramos cells, cell pellets were lysed in lysis buffer (50 mM Tris-HCl, pH 8, 150 mM NaCl, 1% NP-40, 0.5% sodium deoxycholate) with complete protease inhibitor cocktail. After centrifugation at 16,000 x g, the supernatant was transferred into a new tube and the protein concentration was determined by DC protein assay (BIO-RAD, 5000116). Proteins were separated by SDS-PAGE and transferred to a PVDF membrane (Thermo scientific, 0.45 μm, 88518). For PDEδ, BRD2, GAPDH, BRD4, Vinculin and BTK, the membranes were blocked with Intercept® Blocking Buffer (LI-COR Biosciences, 927-70001) at room temperature for 1 h. The primary antibodies for these proteins were diluted with Intercept® Blocking Buffer (1:500 for PDEδ, 1:3000 for Vinculin, and 1:1000 for other proteins) and incubated with the membranes overnight at 4 °C. Membranes were washed with PBS + 0.1% Tween 20 (PBS-T) five times and incubated with secondary antibodies conjugated to IRDye® Infrared Fluorescent Dyes (1:5000, LI-COR Biosciences) at room temperature for 1 h with protection from light. After washing the membrane, signals were visualized using the ChemiDoc MP Imaging System (BIO-RAD Laboratories). For detection of LC3B, BRD3, BLK, DCAF11, DDB1 RBX1, FIP200, V5- and FLAG-Tag the membranes were blocked with 5% milk in PBS-T at room temperature for 1 h. The primary antibodies for these proteins were diluted in 5% milk in PBS-T buffer (1:200 for BRD3, 1:1000 for other proteins) and incubated with the membranes overnight at 4 °C. Membranes were washed with PBS-T five times and incubated with HRP secondary antibodies (1:1500) at room temperature for 1 h. After washing the membrane, protein detection was performed using Western blotting detection reagent (Thermo Scientific, 34095) and the ChemiDoc MP Imaging System (BIO-RAD). Relative band intensities were quantified using Image Lab (BIO-RAD).

BRD2 [3] = biological target: T1, BRD2; assay: BRD2 levels by Western blot in KBM7 cells (WT, DCAF11 knockout, DDB1 knockout); design: endogenous in cells; host or cells: KBM7 (WT, DCAF11 KO, DDB1 KO); conditions: for BRD2 degradation after knockout of DDB1 in KBM7 cells: 0.5 µg/mL Dox for 3 days, then compound 4 h; for BRD2 degradation in DCAF11 knockout (KO1 and KO2) KBM7 cells: 9 at 3 μM, 10 at 10 μM, 11 at 10 μM, 6 h; for BRD2 degradation in KBM7 cells: 4 h
BRD4(S)-BFP = biological target: T2, BRD4(S)-BFP (Homo sapiens, UniProt O60885); assay: Flow cytometry-based BRD4 reporter assay (DCAF11 knockout/rescue); conditions: 6 h, 10 at 5 µM, 9 at 1 µM, dBET6 at 0.5 µM, DMSO = 1
T2 construct: BRD4 short isoform (amino acids 1-719; Twist Bioscience); V5; P2A-mCherry (mCherry split off by P2A self-cleavage) (C, cleaved yes); expressed in transfected cells; host or cells: KBM7 iCas9 cells, lentiviral SFFV-BRD4(S)-mTagBFP-P2A-mCherry
Method: Stable BRD4(S)-BFP reporter KBM7 iCas9 cell line was generated as previously described. […] Cells were subsequently washed, resuspended in FACS buffer and analyzed on LSRFortessa (BD Biosciences). Flow cytometry data was analyzed in FlowJo (v10.8.1). BFP and mCherry mean fluorescence intensity (MFI) values for were normalized by background subtraction of the respective values from reporter negative KBM7 wild type cells.

caspase-3/7 activity = assay: Caspase-3/7 Activity Assay in Jurkat cells; conditions: 18 h
Method: Jurkat cells (3 × 10^3) were seeded in 96-well plates in 25 μl culture medium. Cells were treated with compounds dissolved in 25 μl medium at the indicated concentration for 18 h. After adding 50 μl of Caspase-Glo® 3/7 Reagent (Promega, G8091) to each well for 30 min at room temperature, the luminescence was measured on a Spark® Multimode Microplate Reader (Tecan). The data was analyzed by the GraphPad Prism 9.0.

[4] = individual replicates, Supplementary Fig. 7g, read-out: Cell viability (%) relative to DMSO
[5] = 72 h, Fig. 4k, read-out: Relative cell viability (%)
[6] = KBM7 iCas9 BRD4(S)-BFP reporter cells, WT
[7] = reporter cells, DCAF11 KO + WT cDNA

T1 sequence (P25440 whole entry): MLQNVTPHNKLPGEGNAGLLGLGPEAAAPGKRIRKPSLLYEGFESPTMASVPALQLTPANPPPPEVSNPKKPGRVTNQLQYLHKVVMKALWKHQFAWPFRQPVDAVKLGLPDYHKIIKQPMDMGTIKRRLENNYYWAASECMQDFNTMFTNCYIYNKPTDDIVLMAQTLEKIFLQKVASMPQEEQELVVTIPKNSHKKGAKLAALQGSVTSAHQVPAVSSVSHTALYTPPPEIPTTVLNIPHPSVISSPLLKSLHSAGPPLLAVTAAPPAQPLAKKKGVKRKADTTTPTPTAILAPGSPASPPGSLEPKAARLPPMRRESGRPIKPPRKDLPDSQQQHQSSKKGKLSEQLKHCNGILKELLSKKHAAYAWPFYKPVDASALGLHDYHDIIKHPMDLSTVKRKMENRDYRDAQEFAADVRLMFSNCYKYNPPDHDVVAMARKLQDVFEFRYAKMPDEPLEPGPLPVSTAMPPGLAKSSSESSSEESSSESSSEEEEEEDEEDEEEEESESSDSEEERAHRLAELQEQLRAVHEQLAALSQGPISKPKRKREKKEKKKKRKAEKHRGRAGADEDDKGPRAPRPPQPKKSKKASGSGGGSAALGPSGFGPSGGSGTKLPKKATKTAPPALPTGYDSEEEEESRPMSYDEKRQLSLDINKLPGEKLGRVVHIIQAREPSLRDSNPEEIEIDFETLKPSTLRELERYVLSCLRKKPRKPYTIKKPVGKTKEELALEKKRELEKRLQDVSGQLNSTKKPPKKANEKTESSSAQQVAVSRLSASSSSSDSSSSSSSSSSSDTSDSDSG

SMILES: O=C1Nc2ccc(Br)cc2C1=Cc1cc(Br)c(O)c(Br)c1 [Compound 2]
viability at 72 h, 10 nmol/L [1, 4]: 95.2% | viability at 72 h, 30 nmol/L [1, 4]: 91.8% | viability at 72 h, 100 nmol/L [1, 4]: 87.9% | viability at 72 h, 300 nmol/L ([1]; concentration 300 nmol/L, individual replicates, Supplementary Fig. 7g, read-out: Cell viability (%) relative to DMSO): 89.9% | viability at 72 h, 1000 nmol/L [1, 4]: 90.3% | viability at 72 h, 3000 nmol/L [1, 4]: 86.4% | viability at 72 h, 30000 nmol/L ([1]; concentration 30000 nmol/L, individual replicates, Supplementary Fig. 7g, read-out: Cell viability (%) relative to DMSO): 44.6% | viability at 72 h, 0.01 µM [1, 5]: 98.6% | viability at 72 h, 0.03 µM [1, 5]: 96.8% | viability at 72 h, 0.1 µM [1, 5]: 93.4% | viability at 72 h, 0.3 µM [1, 5]: 95.1% | viability at 72 h, 1 µM [1, 5]: 96.9% | viability at 72 h, 3 µM ([1]; 72 h, 3000 nM, Fig. 4k, read-out: Relative cell viability (%)): 93.5% | viability at 72 h, 10 µM ([1]; 72 h, 10000 nM, Fig. 4k, read-out: Relative cell viability (%)): 80.3% | viability at 72 h, 30 µM ([1]; 72 h, 30000 nM, Fig. 4k, read-out: Relative cell viability (%)): 59.8% | GI50 (Jurkat cells): > 30000 nM | Relative cell viability (%) (Jurkat cells; 10 nM, 0.01 µM): 109.397% and 95.8659% | Relative cell viability (%) (Jurkat cells; 30 nM, 0.03 µM): 109.179% and 98.227% | Relative cell viability (%) (Jurkat cells; 100 nM, 0.1 µM): 109.452% and 110.948% | Relative cell viability (%) (Jurkat cells; 300 nM, 0.3 µM): 108.619% and 101.195% | Relative cell viability (%) (Jurkat cells; 1000 nM, 1 µM): 100.635% and 106.748% | Relative cell viability (%) (Jurkat cells; 3000 nM, 3 µM): 102.832% and 100.062% | Relative cell viability (%) (Jurkat cells; 10000 nM, 10 µM): 99.6522% and 88.024% | Relative cell viability (%) (Jurkat cells; 30000 nM, 30 µM): 74.0357% and 70.3951% | Cell viability (%) relative to DMSO (Jurkat cells; concentration 10 nmol/L): 103.951% and 104.068% | Cell viability (%) relative to DMSO (Jurkat cells; concentration 30 nmol/L): 103.682% and 105.344% | Cell viability (%) relative to DMSO (Jurkat cells; concentration 100 nmol/L): 100.341% and 100.604% | Cell viability (%) relative to DMSO (Jurkat cells; concentration 300 nmol/L): 97.5611% and 103.704% | Cell viability (%) relative to DMSO (Jurkat cells; concentration 1000 nmol/L): 98.2177% and 99.0254% | Cell viability (%) relative to DMSO (Jurkat cells; concentration 3000 nmol/L): 82.942% and 99.8195% | Cell viability (%) relative to DMSO (Jurkat cells; concentration 10000 nmol/L): 67.1883% and 83.6742% and 92.9267% | Cell viability (%) relative to DMSO (Jurkat cells; concentration 30000 nmol/L): 49.2545% and 60.9936% | BRD2 protein levels, ligands alone or in combination (BRD2 [2]; 3 μM, 4 h): did not reduce BRD2 protein levels

BRD2 degradation after knockout of DDB1 in KBM7 cells (BRD2 [3]): did not lead to BRD2 degradation anymore | BRD2 degradation in DCAF11 knockout (KO1 and KO2) KBM7 cells (BRD2 [3]): abolished | BRD2 degradation in KBM7 cells (BRD2 [3]): displayed BRD2-degrading activity | GI50 (Jurkat cells): 90 ± 20 nM | norm BRD4 abundance (BRD4(S)-BFP; [6]): 0.4125 | norm BRD4 abundance (BRD4(S)-BFP; [7]): 0.4289 | norm BRD4 abundance (BRD4(S)-BFP; reporter cells, DCAF11 KO): 0.7503 | degradation of BRD2 (BRD2 [2]): potent degradation activity | BRD2 levels after washout (BRD2 [2]; 10 μM, 5 h prior to washout): did not recover | DC50 (BRD2 [2]; 6 h, read-out: half-maximal degradation concentration (DC50) of BRD2): 255 nM | Dmax (BRD2 [2]; 6 h, read-out: maximum level of degradation (Dmax) of BRD2): 84% | hook effect for BRD2 (BRD2 [2]; 6 h, up to 50 µM concentration): almost no hook effect
SMILES: Cc1sc2c(c1C)C(c1ccc(Cl)cc1)=N[C@@H](CC(=O)NCCOCCOCCOCCOCCNC(=O)COc1c(Br)cc(/C=C3\C(=O)Nc4ccc(Br)cc43)cc1Br)c1nnc(C)n1-2 [Compound 9]
viability at 72 h, 10 nmol/L [1, 4]: 89.8% | viability at 72 h, 30 nmol/L [1, 4]: 92.8% | viability at 72 h, 100 nmol/L [1, 4]: 101% | viability at 72 h, 1000 nmol/L [1, 4]: 13% | viability at 72 h, 3000 nmol/L [1, 4]: 1.47% | viability at 72 h, 0.01 µM [1, 5]: 100% | viability at 72 h, 0.03 µM [1, 5]: 92% | viability at 72 h, 0.1 µM [1, 5]: 64.6% | caspase-3/7 activation compared with JQ1 or non-active degraders 16 and 17 (caspase-3/7 activity): substantially higher

BRD2 degradation after knockout of DDB1 in KBM7 cells (BRD2 [3]): did not lead to BRD2 degradation anymore | BRD2 degradation in DCAF11 knockout (KO1 and KO2) KBM7 cells (BRD2 [3]): abolished | BRD2 degradation in KBM7 cells (BRD2 [3]): displayed BRD2-degrading activity | GI50 (Jurkat cells): 190 ± 30 nM | norm BRD4 abundance (BRD4(S)-BFP; [6]): 0.5147 | norm BRD4 abundance (BRD4(S)-BFP; [7]): 0.5732 | norm BRD4 abundance (BRD4(S)-BFP; reporter cells, DCAF11 KO): 0.8082 | degradation of BRD2 (BRD2 [2]): potent degradation activity | remaining activity at 3 µM (BRD2 [2]; Jurkat, 6 h, 3 μM, 6 h, Fig. 4j, read-out: BRD2/Vinculin intensity (relative to DMSO control group)): 30.7%
SMILES: Cc1sc2c(c1C)C(c1ccc(Cl)cc1)=NC(CC(=O)NCCOCCOCCOCCOc1c(Br)cc(C=C3C(=O)Nc4ccc(Br)cc43)cc1Br)c1nnc(C)n1-2 (stereo not drawn) [Compound 10]
viability at 72 h, 10 nmol/L [1, 4]: 89.7% | viability at 72 h, 30 nmol/L [1, 4]: 90.1% | viability at 72 h, 0.1 µM [1, 5]: 70.8% | viability at 72 h, 0.3 µM [1, 5]: 33.9% | viability at 72 h, 1 µM [1, 5]: 1.17% | caspase-3/7 activation compared with JQ1 or non-active degraders 16 and 17 (caspase-3/7 activity): substantially higher
